A short description of test [1]: cells. Particulars: Homo sapiens, UCH1, 72 h. The test is classed as functional, cell-based.
Description: Antiproliferative activity against human UCH1 cells measured after 72 hrs by alamar blue assay
Test [2] in a line: cells. The test is classed as functional, cell-based. Particulars: Homo sapiens, UCH2, 72 h.
Description: Antiproliferative activity against human UCH2 cells measured after 72 hrs by alamar blue assay

In the case of `COc1cc2/c(=N/c3ccc(Br)cc3F)nc[nH]c2cc1OCC1CCN(C)CC1` [VANDETANIB], the IC50 (as a rule, the concentration needed to halve the response being measured) in “cells [1]” stood at 1000 nM; in “cells [2]”, 4200 nM.
For `CCOc1cc2ncc(C#N)c(Nc3ccc(F)c(Cl)c3)c2cc1NC(=O)/C=C/CN(C)C` [PELITINIB] the same measures were 90 nM and 1600 nM.
For `COc1cc2c(Nc3ccc(Cl)c(Cl)c3F)ncnc2cc1OC[C@@H]1C[C@@H]2CN(C)C[C@@H]2C1` [TESEVATINIB] the same measures were 150 nM and 1100 nM.
Consider `C=CC(=O)Nc1cc2c(Nc3ccc(F)c(Cl)c3)ncnc2cc1OCCCN1CCOCC1` [CANERTINIB], for which the IC50 in “cells [1]” was 80 nM; in “cells [2]”, 17000 nM.
As for `CNC(=O)CN1CCC(Oc2cc3c(Nc4cccc(Cl)c4F)ncnc3cc2OC)CC1` [SAPITINIB], the IC50 in “cells [1]” was determined as 420 nM; in “cells [2]”, 5700 nM.
In the case of `C=CC(=O)N1CCC(Oc2cc3c(Nc4ccc(Cl)c(Cl)c4F)ncnc3cc2OC)CC1` [POZIOTINIB], the IC50 in “cells [1]” amounted to 110 nM; in “cells [2]” it was 8100 nM.
As for `CCOc1cc2ncc(C#N)c(Nc3ccc(OCc4ccccn4)c(Cl)c3)c2cc1NC(=O)/C=C/CN(C)C` [NERATINIB], the results for the concentration for half-maximal inhibition (IC50) in the test “cells [1]” and in “cells [2]” were 5500 nM and 2400 nM, respectively.
Take `CN1CCN(CCOc2cc(OC3CCOCC3)c3c(Nc4c(Cl)ccc5c4OCO5)ncnc3c2)CC1` [SARACATINIB]: the results for the IC50 in “cells [1]” and in the test “cells [2]” were 4300 nM and 28000 nM, respectively.
For `COc1cc(Nc2c(C#N)cnc3cc(OCCCN4CCN(C)CC4)c(OC)cc23)c(Cl)cc1Cl` [BOSUTINIB] the same measures were 15000 nM and 36000 nM.
Regarding `COc1cc2ncnc(Nc3ccc(F)c(Cl)c3)c2cc1NC(=O)/C=C/CN1CCCCC1` [DACOMITINIB ANHYDROUS], the IC50 in the test “cells [1]” came to 50 nM; in the test “cells [2]” it was 2700 nM.
`CN(C)C/C=C/C(=O)Nc1cc2c(Nc3ccc(F)c(Cl)c3)ncnc2cc1O[C@H]1CCOC1` [AFATINIB]: the IC50 was determined as 100 nM in the test “cells [1]” and 6400 nM in the test “cells [2]”.

Source of the values: ChEMBL document CHEMBL4393671, “Design of a Cyclin G Associated Kinase (GAK)/Epidermal Growth Factor Receptor (EGFR) Inhibitor Set to Interrogate the Relationship of EGFR and GAK in Chordoma” (J Med Chem, 2019).
